# From ChEMBL document CHEMBL5291721, “A preclinical secondary pharmacology resource illuminates target-adverse drug reaction associations of marketed drugs” (Nat Commun, 2023)
# Assays:
# [1] = target: T1, Endothelin-1 receptor (Homo sapiens, UniProt P25101)
# T1 sequence (P25101 whole entry): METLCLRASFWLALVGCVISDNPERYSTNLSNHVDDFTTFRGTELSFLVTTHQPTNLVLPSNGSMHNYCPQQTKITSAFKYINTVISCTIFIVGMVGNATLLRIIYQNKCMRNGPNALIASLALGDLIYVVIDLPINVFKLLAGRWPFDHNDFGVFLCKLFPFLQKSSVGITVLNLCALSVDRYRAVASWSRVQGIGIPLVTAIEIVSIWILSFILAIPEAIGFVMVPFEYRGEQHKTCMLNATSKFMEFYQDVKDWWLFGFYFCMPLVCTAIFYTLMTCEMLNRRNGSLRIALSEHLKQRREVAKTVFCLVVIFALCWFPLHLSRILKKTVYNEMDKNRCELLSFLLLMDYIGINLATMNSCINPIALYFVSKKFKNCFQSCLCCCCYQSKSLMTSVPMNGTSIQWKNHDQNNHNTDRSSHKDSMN
# [2] = target: Gamma-aminobutyric acid receptor subunit alpha-1 (Rattus norvegicus, UniProt P62813)
# [3] = target: 5-hydroxytryptamine receptor 2A (Homo sapiens, UniProt P28223); assay type: functional, cell-based
# [4] = target: T2, Glucocorticoid receptor (Homo sapiens, UniProt P04150)
# T2 sequence (P04150 whole entry): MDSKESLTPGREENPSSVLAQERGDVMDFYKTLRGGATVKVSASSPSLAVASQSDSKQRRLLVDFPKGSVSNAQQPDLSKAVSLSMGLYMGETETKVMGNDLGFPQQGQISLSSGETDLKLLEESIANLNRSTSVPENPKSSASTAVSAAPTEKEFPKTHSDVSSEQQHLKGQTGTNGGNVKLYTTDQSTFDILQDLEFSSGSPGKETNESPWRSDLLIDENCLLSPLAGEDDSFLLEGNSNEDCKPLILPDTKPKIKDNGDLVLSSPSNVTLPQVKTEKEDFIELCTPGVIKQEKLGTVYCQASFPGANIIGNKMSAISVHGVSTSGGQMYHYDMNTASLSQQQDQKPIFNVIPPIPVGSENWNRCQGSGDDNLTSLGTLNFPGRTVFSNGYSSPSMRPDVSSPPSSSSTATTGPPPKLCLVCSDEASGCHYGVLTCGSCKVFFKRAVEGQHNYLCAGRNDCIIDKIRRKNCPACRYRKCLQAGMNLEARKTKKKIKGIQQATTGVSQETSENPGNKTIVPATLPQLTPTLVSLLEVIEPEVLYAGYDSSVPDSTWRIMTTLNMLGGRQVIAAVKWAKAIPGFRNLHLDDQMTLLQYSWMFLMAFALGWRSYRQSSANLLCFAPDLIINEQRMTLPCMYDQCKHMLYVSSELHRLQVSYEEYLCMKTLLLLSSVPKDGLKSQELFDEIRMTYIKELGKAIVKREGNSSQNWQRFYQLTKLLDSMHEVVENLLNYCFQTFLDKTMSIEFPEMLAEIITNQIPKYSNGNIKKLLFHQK
# [5] = target: Mu-type opioid receptor (Homo sapiens, UniProt P35372)
# [6] = target: 3',5'-cyclic-AMP phosphodiesterase 4A (Homo sapiens, UniProt P27815); assay type: functional
# [7] = target: D(1A) dopamine receptor (Homo sapiens, UniProt P21728)
# [8] = target: T3, Amine oxidase [flavin-containing] A (Homo sapiens, UniProt P21397); assay type: functional
# T3 sequence (P21397 whole entry): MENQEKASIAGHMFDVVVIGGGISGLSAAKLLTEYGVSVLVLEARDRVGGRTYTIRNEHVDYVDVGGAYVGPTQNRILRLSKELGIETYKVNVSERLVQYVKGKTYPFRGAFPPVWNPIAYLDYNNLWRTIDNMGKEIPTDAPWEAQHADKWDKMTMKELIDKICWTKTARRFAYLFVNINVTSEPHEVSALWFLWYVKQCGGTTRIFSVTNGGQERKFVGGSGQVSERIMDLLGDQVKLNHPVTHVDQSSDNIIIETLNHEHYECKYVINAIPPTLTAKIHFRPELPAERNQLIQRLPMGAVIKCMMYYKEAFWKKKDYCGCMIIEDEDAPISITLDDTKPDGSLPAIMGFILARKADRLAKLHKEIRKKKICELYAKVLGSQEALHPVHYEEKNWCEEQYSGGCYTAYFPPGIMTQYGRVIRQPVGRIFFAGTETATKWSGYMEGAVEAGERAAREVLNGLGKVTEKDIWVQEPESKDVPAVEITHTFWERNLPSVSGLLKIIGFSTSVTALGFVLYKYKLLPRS
# [9] = target: T4, Muscarinic acetylcholine receptor M2 (Homo sapiens, UniProt P08172)
# T4 sequence (P08172 whole entry): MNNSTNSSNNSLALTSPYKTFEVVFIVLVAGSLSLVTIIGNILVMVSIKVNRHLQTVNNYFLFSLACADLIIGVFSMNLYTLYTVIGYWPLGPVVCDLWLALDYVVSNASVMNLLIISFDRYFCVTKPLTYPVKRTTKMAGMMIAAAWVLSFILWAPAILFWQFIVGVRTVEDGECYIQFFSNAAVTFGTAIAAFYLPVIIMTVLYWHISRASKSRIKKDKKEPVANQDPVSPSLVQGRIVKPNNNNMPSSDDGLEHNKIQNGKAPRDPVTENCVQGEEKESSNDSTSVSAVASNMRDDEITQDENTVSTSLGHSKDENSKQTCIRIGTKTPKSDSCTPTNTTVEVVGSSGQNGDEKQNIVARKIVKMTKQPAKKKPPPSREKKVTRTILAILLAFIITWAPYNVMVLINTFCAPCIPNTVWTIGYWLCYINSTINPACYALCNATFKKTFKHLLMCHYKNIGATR
# Further: assay procedure not described here.
# Chain of Gamma-aminobutyric acid receptor subunit alpha-1 (P62813 whole entry): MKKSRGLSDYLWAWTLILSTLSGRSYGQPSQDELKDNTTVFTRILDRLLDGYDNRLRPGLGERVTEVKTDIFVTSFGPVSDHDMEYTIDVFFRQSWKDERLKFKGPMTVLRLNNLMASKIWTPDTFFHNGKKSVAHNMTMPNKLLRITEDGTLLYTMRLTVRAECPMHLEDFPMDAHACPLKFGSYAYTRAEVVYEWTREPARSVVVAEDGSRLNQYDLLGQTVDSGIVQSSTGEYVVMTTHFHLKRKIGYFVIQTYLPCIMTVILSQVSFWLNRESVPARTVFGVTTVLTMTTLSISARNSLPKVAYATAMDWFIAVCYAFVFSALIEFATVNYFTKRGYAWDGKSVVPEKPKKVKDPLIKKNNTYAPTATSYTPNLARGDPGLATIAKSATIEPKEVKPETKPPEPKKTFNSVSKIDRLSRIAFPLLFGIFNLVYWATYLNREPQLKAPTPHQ
# Chain of 5-hydroxytryptamine receptor 2A (P28223 whole entry): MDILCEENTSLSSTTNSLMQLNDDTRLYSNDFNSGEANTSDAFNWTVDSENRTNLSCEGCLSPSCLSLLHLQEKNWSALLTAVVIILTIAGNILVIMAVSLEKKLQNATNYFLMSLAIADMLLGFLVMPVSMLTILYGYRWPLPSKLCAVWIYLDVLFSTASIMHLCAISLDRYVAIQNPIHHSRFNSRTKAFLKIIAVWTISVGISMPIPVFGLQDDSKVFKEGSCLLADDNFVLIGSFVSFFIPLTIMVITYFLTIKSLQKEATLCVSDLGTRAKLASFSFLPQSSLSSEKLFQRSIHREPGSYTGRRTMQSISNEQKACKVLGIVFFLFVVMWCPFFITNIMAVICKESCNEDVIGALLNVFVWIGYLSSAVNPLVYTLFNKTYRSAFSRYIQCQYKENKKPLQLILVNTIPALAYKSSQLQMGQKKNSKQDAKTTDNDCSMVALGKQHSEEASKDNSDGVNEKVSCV
# Chain of 3',5'-cyclic-AMP phosphodiesterase 4A (P27815 whole entry): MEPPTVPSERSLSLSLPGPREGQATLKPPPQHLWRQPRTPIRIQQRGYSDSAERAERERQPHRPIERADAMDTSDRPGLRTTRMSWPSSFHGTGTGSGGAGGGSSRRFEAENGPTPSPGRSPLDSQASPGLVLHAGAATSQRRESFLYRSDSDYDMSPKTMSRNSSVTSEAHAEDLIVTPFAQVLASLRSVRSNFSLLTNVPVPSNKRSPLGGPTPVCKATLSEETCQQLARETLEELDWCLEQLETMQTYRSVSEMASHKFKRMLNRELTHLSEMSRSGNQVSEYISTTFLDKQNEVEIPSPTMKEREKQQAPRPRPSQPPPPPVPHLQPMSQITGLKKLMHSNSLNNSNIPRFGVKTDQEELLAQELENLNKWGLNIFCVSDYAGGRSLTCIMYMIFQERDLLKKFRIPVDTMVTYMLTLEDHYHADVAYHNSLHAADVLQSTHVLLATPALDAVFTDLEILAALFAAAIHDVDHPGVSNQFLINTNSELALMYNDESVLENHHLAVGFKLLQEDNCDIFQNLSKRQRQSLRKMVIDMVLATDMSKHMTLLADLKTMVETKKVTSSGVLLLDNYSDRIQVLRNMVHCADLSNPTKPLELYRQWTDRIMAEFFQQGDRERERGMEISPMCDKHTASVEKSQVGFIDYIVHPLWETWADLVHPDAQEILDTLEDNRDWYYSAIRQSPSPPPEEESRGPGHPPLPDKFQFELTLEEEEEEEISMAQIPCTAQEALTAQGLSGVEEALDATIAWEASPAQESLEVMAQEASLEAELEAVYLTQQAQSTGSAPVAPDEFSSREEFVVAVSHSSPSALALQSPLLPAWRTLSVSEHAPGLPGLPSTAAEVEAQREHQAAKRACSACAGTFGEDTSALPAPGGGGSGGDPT
# Chain of D(1A) dopamine receptor (P21728 whole entry): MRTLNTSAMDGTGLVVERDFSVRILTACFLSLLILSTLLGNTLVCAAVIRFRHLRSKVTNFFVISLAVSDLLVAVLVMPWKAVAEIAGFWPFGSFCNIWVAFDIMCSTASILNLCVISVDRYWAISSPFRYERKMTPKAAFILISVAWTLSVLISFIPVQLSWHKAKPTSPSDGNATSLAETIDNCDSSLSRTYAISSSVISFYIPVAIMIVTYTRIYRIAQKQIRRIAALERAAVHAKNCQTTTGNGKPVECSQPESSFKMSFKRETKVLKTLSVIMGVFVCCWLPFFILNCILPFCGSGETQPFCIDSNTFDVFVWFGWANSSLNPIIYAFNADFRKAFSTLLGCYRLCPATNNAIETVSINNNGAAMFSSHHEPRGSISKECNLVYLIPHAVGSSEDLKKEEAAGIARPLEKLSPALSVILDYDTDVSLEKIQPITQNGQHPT
# Chain of Mu-type opioid receptor (P35372 whole entry): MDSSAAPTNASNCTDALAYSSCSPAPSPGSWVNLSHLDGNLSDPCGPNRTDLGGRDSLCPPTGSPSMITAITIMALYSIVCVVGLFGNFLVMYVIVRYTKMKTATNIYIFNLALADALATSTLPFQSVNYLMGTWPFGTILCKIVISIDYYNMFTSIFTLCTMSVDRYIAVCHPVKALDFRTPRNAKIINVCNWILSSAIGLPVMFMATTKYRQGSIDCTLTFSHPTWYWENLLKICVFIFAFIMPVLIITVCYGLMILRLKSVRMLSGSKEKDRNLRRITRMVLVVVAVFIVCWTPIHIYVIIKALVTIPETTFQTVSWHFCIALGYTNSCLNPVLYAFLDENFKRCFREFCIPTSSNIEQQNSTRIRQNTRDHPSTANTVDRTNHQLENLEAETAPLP
Structure (SMILES),AC50 [1],AC50 [2],AC50 [3],AC50 [4],also measured
COc1ccccc1OCC(O)CN1CCN(CC(=O)Nc2c(C)cccc2C)CC1 (centres undefined) [RANOLAZINE],> 30 µM,> 30 µM,> 30 µM,> 30 µM,
Nc1nc(NC2CC2)c2ncn([C@H]3C=C[C@@H](CO)C3)c2n1 [ABACAVIR],> 30 µM,> 30 µM,> 30 µM,> 30 µM,
O=C1Nc2ccc(Cl)cc2[C@@](C#CC2CC2)(C(F)(F)F)O1 [EFAVIRENZ],> 30 µM,> 10 µM,> 30 µM,2.71 µM,
C[C@H]1CNCCc2ccc(Cl)cc21 [LORCASERIN],> 30 µM,,,,
Clc1ccc(C(c2ccccc2Cl)C(Cl)Cl)cc1 (centres undefined) [MITOTANE],,> 10 µM,,1.4 µM,
CCCN1C[C@H](CSC)C[C@@H]2c3cccc4[nH]cc(c34)C[C@H]21 [PERGOLIDE],> 30 µM,> 10 µM,,> 30 µM,
NS(=O)(=O)Cc1noc2ccccc12 [ZONISAMIDE],,> 10 µM,> 10 µM,> 10 µM,
CCCCCCOc1nsnc1C1=CCCN(C)C1 [XANOMELINE],,,,,AC50 [5]: > 30 µM; AC50 [6]: 28.5 µM; AC50 [7]: 1.22 µM
CN1C(C(=O)Nc2ccccn2)=C(O)c2sc(Cl)cc2S1(=O)=O [LORNOXICAM],,> 10 µM,> 30 µM,,
CCc1oc2ccccc2c1C(=O)c1cc(I)c(O)c(I)c1 [BENZIODARONE],,,,,AC50 [8]: > 30 µM; AC50 [5]: 9.64 µM; AC50 [6]: 2.37 µM; AC50 [7]: 10 µM; AC50 [9]: > 30 µM
O=C(O[C@H]1C[C@H]2CC[C@@H](C1)[N+]21CCCC1)C(O)(c1ccccc1)c1ccccc1 [TROSPIUM],,> 30 µM,> 30 µM,,
Cc1c(C(=O)NN2CCCCC2)nn(-c2ccc(Cl)cc2Cl)c1-c1ccc(Cl)cc1 [RIMONABANT],> 30 µM,> 10 µM,> 30 µM,> 30 µM,
CCOC(=O)[C@H](CCc1ccccc1)N[C@@H](C)C(=O)N1[C@H](C(=O)O)C[C@@H]2CCC[C@@H]21,> 30 µM,> 10 µM,,> 30 µM,
Cn1nnc2c(C(N)=O)ncn2c1=O [TEMOZOLOMIDE],> 30 µM,> 10 µM,> 30 µM,,
C[N+]1(C)CCC(OC(=O)C(O)(c2ccccc2)C2CCCC2)C1 (centres undefined) [GLYCOPYRRONIUM BROMIDE],,,,> 30 µM,AC50 [6]: > 30 µM
CN(C)CCC(c1ccc(Cl)cc1)c1ccccn1 (centres undefined) [CHLORPHENIRAMINE],> 30 µM,> 10 µM,,> 30 µM,
c1cnc(N2CCN(Cc3ccc4c(c3)OCO4)CC2)nc1 [PIRIBEDIL],> 30 µM,,> 30 µM,,
C[C@@H](O)[C@H]1C(=O)N2C(C(=O)O)=C(S[C@@H]3CN[C@H](C(=O)N(C)C)C3)[C@H](C)[C@H]12 [MEROPENEM],> 300 µM,> 10 µM,,> 10 µM,
CNC(=O)c1ccccc1Sc1ccc2c(/C=C/c3ccccn3)n[nH]c2c1 [AXITINIB],> 30 µM,,> 30 µM,,
CC1=C(C(=O)O)N2C(=O)[C@@H](NC(=O)[C@H](N)c3ccccc3)[C@H]2SC1 [CEPHALEXIN ANHYDROUS],> 30 µM,> 10 µM,,> 30 µM,

Structure (SMILES),AC50 [1],AC50 [2],AC50 [3],AC50 [4],also measured
CN(C)CCC=C1c2ccccc2C(C)(C)c2ccccc21,> 30 µM,,4.5 µM,,
COc1ccc(CC(C)(C)NC[C@H](O)c2cc(O)cc3c2OCC(=O)N3)cc1 [OLODATEROL],> 30 µM,,> 30 µM,,
CN(C)/N=N/c1[nH]cnc1C(N)=O [DACARBAZINE],,> 10 µM,,> 10 µM,
c1ccc([C@H]2CN3CCSC3=N2)cc1 [LEVAMISOLE],> 30 µM,> 30 µM,,,
N[C@@H]1[C@H]2CN(c3nc4c(cc3F)c(=O)c(C(=O)O)cn4-c3ccc(F)cc3F)C[C@@H]12 [TROVAFLOXACIN],> 30 µM,,,,
N[C@H](C(=O)O)[C@H](O)c1ccc(O)c(O)c1 [DROXIDOPA],,,,,AC50 [8]: > 30 µM; AC50 [5]: > 30 µM; AC50 [6]: > 30 µM; AC50 [7]: > 30 µM; AC50 [9]: > 30 µM
C=C[C@H]1C[N@@]2CC[C@H]1C[C@H]2[C@H](O)c1ccnc2ccc(OC)cc12 [QUININE],,,,,AC50 [8]: > 30 µM; AC50 [5]: 8.38 µM; AC50 [6]: > 30 µM; AC50 [7]: > 30 µM; AC50 [9]: > 30 µM
CNC1Cc2ccccc2N(C)c2ccccc21 (centres undefined) [METAPRAMINE],> 30 µM,,> 30 µM,,
CN1C(=O)CCS(=O)(=O)C1c1ccc(Cl)cc1 (centres undefined) [CHLORMEZANONE],,> 10 µM,> 10 µM,> 10 µM,
O=P1(NCCCl)OCCCN1CCCl (centres undefined) [IFOSFAMIDE],,> 30 µM,,> 30 µM,
COc1cc(NC(C)CCCN)c2ncccc2c1 (centres undefined) [PRIMAQUINE],> 30 µM,,,,AC50 [6]: 16.2 µM
CC(C)C[C@H]1C(=O)N2CCC[C@H]2[C@]2(O)O[C@](NC(=O)[C@@H]3C=C4c5cccc6[nH]c(Br)c(c56)C[C@H]4N(C)C3)(C(C)C)C(=O)N12 [BROMOCRIPTINE],> 30 µM,> 10 µM,,> 30 µM,AC50 [8]: > 30 µM; AC50 [5]: 3.45 µM; AC50 [6]: > 30 µM; AC50 [7]: 2.37 µM; AC50 [9]: 29.1 µM
Nc1ccn([C@H]2CC[C@@H](CO)O2)c(=O)n1 [ZALCITABINE],,> 10 µM,> 30 µM,,
C[C@]12CCC(=O)C=C1CC[C@@H]1[C@@H]2[C@@H](O)C[C@@]2(C)[C@H]1CC[C@]2(O)C(=O)CO [HYDROCORTISONE],> 30 µM,> 10 µM,,,
CN(C)CCN1C(=O)c2ccccc2N(C)c2ccccc21 [DIBENZEPIN],,,,,AC50 [8]: > 30 µM; AC50 [5]: 28.8 µM; AC50 [6]: > 30 µM; AC50 [7]: 14.3 µM; AC50 [9]: 2.62 µM
C1CCC(C(CC2CCCCN2)C2CCCCC2)CC1 (centres undefined) [PERHEXILINE],> 30 µM,,,,
Cc1ccc(-c2cc(C(F)(F)F)nn2-c2ccc(S(N)(=O)=O)cc2)cc1 [CELECOXIB],> 30 µM,> 10 µM,,> 30 µM,
Clc1ccc2nsnc2c1NC1=NCCN1 [TIZANIDINE],> 30 µM,> 10 µM,,> 30 µM,
CCCSc1ccc2nc(NC(=O)OC)[nH]c2c1 [ALBENDAZOLE],,> 10 µM,,> 10 µM,
CCC(C)n1ncn(-c2ccc(N3CCN(c4ccc(OCC5COC(Cn6cncn6)(c6ccc(Cl)cc6Cl)O5)cc4)CC3)cc2)c1=O (centres undefined) [ITRACONAZOLE],> 30 µM,> 30 µM,,,
